Source: publication PMC5529566, “The cryo-EM structure of gastric H^+,K^+-ATPase with bound BYK99, a high-affinity member of K^+-competitive, imidazo[1,2-a]pyridine inhibitors” (Scientific Reports, 2017)

Legend:
H^+,K^+-ATPase D136A = H^+,K^+-ATPase D136A (Sus scrofa, UniProt P19156, D137A); assay: ATPase assay, D136A mutant
H^+,K^+-ATPase D136F = H^+,K^+-ATPase D136F (Sus scrofa, UniProt P19156, D137F); assay: ATPase assay, D136F mutant
H^+,K^+-ATPase D137A = H^+,K^+-ATPase D137A (Sus scrofa, UniProt P19156, D138A); assay: ATPase assay, D137A mutant
H^+,K^+-ATPase D137I = H^+,K^+-ATPase D137I (Sus scrofa, UniProt P19156, D138I); assay: ATPase assay, D137I mutant
H^+,K^+-ATPase D137F = H^+,K^+-ATPase D137F (Sus scrofa, UniProt P19156, D138F); assay: ATPase assay, D137F mutant
H^+,K^+-ATPase N138F = H^+,K^+-ATPase N138F (Sus scrofa, UniProt P19156, N139F); assay: ATPase assay, N138F mutant
H^+,K^+-ATPase Y140A = H^+,K^+-ATPase Y140A (Sus scrofa, UniProt P19156, Y141A); assay: ATPase assay, Y140A mutant
H^+,K^+-ATPase L141I = H^+,K^+-ATPase L141I (Sus scrofa, UniProt P19156, L142I); assay: ATPase assay, L141I mutant
H^+,K^+-ATPase A125S = H^+,K^+-ATPase A125S (Sus scrofa, UniProt P19156, A126S); assay: ATPase assay, A125S mutant
H^+,K^+-ATPase Q127A = H^+,K^+-ATPase Q127A (Sus scrofa, UniProt P19156, Q128A); assay: ATPase assay, Q127A mutant
H^+,K^+-ATPase D137N = H^+,K^+-ATPase D137N (Sus scrofa, UniProt P19156, D138N); assay: ATPase assay, D137N mutant
H^+,K^+-ATPase A335V = H^+,K^+-ATPase A335V (Sus scrofa, UniProt P19156, A336V); assay: ATPase assay, A335V mutant
H^+,K^+-ATPase Y799A = H^+,K^+-ATPase Y799A (Sus scrofa, UniProt P19156, Y800A); assay: ATPase assay, Y799A mutant
H^+,K^+-ATPase Y799F = H^+,K^+-ATPase Y799F (Sus scrofa, UniProt P19156, Y800F); assay: ATPase assay, Y799F mutant
H^+,K^+-ATPase L809F = H^+,K^+-ATPase L809F (Sus scrofa, UniProt P19156, L810F); assay: ATPase assay, L809F mutant
H^+,K^+-ATPase V331A = H^+,K^+-ATPase V331A (Sus scrofa, UniProt P19156, V332A); assay: ATPase assay, V331A mutant
H^+,K^+-ATPase V331F = H^+,K^+-ATPase V331F (Sus scrofa, UniProt P19156, V332F); assay: ATPase assay, V331F mutant
H^+,K^+-ATPase L800F = H^+,K^+-ATPase L800F (Sus scrofa, UniProt P19156, L801F); assay: ATPase assay, L800F mutant
[1] = target: H^+,K^+-ATPase D137N/N138D (Sus scrofa, UniProt P19156, D138N/N139D); assay: ATPase assay, D137N/N138D mutant
[2] = target: H^+,K^+-ATPase A335C/C813A (Sus scrofa, UniProt P19156, A336C/C814A); assay: ATPase assay, A335C/C813A mutant
H^+,K^+-ATPase = H^+,K^+-ATPase (Sus scrofa, UniProt P19156); assay: Dose-dependent inhibition of H^+,K^+-ATPase activity in the presence of 10 mM KCl
Protocol: Reactions were initiated by incubating at 37 °C using a thermal cycler, and maintained for 1 to 5 h (depending on the activity). Reactions were terminated by withdrawing 40 μL from the 80 μL reactant, and mixing with 80 μL of stop solution comprising 6% ascorbic acid and 2% ammonium molybdate in 1 N HCl, followed by the addition of 120 μL of 2% sodium arsenate, 2% sodium citrate, and 2% acetic acid. The amount of released inorganic phosphate was determined colorimetrically[39] from absorbance at 850 nm by the microplate reader (TECAN).

Sequence of H^+,K^+-ATPase D137N (P19156 whole entry D138N): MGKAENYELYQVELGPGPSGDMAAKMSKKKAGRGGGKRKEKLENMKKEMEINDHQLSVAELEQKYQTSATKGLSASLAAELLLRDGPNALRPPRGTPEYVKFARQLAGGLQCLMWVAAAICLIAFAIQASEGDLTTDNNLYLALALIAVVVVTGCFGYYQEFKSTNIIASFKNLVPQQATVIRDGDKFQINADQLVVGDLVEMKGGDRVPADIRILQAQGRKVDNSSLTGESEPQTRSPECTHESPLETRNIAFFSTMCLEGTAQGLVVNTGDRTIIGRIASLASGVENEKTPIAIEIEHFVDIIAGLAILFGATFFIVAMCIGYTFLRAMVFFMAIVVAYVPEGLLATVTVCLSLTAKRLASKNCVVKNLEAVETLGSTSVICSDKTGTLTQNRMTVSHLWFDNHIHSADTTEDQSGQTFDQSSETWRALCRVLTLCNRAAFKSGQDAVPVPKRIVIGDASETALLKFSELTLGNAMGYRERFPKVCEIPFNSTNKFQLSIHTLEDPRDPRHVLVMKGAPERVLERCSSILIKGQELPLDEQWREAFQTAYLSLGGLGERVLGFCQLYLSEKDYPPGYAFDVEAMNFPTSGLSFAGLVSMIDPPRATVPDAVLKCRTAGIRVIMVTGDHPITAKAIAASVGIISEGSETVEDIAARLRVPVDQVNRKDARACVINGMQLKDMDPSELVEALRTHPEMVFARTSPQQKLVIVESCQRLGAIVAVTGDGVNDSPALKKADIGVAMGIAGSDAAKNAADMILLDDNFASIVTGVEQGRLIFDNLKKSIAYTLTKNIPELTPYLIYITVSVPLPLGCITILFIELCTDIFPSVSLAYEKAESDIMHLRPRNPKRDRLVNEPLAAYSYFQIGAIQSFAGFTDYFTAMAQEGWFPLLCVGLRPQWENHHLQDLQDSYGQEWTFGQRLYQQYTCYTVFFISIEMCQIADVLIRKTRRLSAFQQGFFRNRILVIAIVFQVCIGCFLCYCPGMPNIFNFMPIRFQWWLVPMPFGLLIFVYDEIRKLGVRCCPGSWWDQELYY
Sequence of H^+,K^+-ATPase D137N (P18434 whole entry partner): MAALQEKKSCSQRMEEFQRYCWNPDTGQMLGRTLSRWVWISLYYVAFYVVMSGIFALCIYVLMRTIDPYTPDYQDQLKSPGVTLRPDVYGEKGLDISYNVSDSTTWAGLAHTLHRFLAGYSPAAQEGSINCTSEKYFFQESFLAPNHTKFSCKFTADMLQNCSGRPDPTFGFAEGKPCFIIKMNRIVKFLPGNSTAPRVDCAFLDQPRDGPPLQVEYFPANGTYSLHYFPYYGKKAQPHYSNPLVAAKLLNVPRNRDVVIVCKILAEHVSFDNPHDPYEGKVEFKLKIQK
Sequence of H^+,K^+-ATPase D137N/N138D (P19156 whole entry D138N/N139D): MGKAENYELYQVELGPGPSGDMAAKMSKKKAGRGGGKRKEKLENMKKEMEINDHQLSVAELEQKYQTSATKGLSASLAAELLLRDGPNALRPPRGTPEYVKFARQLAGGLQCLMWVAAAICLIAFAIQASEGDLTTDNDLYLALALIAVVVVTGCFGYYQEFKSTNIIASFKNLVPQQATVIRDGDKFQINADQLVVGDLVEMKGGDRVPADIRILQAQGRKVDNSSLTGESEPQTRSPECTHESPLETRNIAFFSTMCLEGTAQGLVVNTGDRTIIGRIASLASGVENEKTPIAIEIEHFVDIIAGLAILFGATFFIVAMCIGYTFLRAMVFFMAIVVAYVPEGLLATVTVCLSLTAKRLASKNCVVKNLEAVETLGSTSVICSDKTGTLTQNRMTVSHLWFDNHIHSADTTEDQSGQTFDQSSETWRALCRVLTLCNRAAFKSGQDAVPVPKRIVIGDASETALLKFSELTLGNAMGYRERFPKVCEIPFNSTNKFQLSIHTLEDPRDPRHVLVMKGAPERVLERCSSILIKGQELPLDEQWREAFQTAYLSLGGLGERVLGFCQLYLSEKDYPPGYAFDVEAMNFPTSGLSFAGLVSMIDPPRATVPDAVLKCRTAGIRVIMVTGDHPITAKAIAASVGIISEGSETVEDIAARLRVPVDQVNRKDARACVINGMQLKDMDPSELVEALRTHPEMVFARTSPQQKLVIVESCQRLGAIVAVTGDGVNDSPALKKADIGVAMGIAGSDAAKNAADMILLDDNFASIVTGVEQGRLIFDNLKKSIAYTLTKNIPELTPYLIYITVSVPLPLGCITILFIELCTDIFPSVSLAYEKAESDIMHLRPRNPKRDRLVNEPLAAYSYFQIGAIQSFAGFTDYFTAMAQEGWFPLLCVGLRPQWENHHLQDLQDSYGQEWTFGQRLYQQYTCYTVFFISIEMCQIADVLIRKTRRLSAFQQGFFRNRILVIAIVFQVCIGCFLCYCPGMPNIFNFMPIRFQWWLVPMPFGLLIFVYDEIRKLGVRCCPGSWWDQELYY
Sequence of H^+,K^+-ATPase D137N/N138D (P18434 whole entry partner): as the sequence (P18434 whole entry partner) above
Sequence of H^+,K^+-ATPase L800F (P19156 whole entry L801F): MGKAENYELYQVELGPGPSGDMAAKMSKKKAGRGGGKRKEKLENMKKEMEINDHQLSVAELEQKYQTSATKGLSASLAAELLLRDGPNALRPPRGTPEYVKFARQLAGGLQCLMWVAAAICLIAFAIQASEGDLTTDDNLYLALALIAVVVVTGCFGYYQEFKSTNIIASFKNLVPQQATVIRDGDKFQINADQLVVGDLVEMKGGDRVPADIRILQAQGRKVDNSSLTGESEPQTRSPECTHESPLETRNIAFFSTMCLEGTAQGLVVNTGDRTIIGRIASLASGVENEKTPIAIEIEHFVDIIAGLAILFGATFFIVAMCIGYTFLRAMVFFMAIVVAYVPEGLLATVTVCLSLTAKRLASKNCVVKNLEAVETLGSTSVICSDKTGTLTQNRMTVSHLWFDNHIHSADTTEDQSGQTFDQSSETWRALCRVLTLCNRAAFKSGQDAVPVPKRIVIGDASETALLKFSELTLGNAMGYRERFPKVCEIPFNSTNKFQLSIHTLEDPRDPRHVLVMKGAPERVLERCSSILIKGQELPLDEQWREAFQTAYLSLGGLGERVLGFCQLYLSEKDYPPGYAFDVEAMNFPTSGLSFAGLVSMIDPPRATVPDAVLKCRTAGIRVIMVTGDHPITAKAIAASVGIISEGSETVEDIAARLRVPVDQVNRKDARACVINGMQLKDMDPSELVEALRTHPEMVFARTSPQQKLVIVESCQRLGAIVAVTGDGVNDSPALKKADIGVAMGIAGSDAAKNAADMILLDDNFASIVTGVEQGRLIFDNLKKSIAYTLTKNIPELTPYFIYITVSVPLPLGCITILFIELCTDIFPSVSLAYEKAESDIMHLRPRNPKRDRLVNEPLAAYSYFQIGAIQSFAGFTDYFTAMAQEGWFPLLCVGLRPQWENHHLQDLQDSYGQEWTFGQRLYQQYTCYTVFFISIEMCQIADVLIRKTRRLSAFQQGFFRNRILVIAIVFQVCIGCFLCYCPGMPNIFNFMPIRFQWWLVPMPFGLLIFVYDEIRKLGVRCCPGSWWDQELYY
Sequence of H^+,K^+-ATPase L800F (P18434 whole entry partner): as the sequence (P18434 whole entry partner) above
Sequence of H^+,K^+-ATPase D137I (P19156 whole entry D138I): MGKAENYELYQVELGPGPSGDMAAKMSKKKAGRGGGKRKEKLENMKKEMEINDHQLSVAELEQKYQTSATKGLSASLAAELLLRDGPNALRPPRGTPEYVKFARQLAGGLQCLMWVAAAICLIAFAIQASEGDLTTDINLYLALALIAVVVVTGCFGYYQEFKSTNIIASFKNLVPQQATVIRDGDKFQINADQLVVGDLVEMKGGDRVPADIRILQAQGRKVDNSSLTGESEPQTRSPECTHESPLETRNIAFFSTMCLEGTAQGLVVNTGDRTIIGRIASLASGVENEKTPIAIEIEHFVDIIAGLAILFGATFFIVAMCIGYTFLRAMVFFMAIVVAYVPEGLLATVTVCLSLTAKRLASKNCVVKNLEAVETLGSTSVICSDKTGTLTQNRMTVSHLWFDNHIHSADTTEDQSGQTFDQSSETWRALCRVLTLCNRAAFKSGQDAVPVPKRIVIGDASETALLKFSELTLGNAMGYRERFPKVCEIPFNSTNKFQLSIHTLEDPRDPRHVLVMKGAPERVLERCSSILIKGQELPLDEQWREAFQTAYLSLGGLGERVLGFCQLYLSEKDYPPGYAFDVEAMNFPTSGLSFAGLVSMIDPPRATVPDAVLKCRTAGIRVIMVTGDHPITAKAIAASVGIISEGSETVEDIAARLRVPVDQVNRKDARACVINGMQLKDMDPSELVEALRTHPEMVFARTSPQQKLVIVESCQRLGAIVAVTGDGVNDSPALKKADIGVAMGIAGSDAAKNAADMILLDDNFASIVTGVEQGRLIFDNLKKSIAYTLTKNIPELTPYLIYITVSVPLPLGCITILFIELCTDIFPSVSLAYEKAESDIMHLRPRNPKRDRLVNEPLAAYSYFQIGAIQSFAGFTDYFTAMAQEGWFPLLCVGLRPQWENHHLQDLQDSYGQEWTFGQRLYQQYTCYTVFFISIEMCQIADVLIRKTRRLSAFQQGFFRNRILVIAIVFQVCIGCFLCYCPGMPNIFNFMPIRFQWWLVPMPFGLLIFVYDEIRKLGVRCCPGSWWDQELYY
Sequence of H^+,K^+-ATPase D137I (P18434 whole entry partner): as the sequence (P18434 whole entry partner) above

Ki (H^+,K^+-ATPase D136A): 10 ± 1 nM
-fold increase in K i compared with wild-type (H^+,K^+-ATPase D136A; D136A): 1.7 fold
Ki (H^+,K^+-ATPase D136F): 5.9 ± 0.7 nM
-fold increase in K i compared with wild-type (H^+,K^+-ATPase D136F; D136F): 1.0 fold
Ki (H^+,K^+-ATPase D137A): 81 ± 13 nM
-fold increase in K i compared with wild-type (H^+,K^+-ATPase D137A; D137A): 14 fold
Ki (H^+,K^+-ATPase D137I): 62 ± 15 nM
-fold increase in K i compared with wild-type (H^+,K^+-ATPase D137I; D137I): 11 fold
Ki (H^+,K^+-ATPase D137F): 640 ± 110 nM
-fold increase in K i compared with wild-type (H^+,K^+-ATPase D137F; D137F): 110 fold
Ki (H^+,K^+-ATPase N138F): 7.7 ± 1.2 µM
-fold increase in K i compared with wild-type (H^+,K^+-ATPase N138F; N138F): 1300 fold
Ki (H^+,K^+-ATPase Y140A): 25 ± 3 nM
-fold increase in K i compared with wild-type (H^+,K^+-ATPase Y140A; Y140A): 4.3 fold
Ki (H^+,K^+-ATPase L141I): 8.4 ± 1.5 nM
-fold increase in K i compared with wild-type (H^+,K^+-ATPase L141I; L141I): 1.4 fold
Ki (H^+,K^+-ATPase A125S): 27 ± 2 nM
-fold increase in K i compared with wild-type (H^+,K^+-ATPase A125S; A125S): 4.6 fold
Ki (H^+,K^+-ATPase Q127A): 19 ± 1 nM
-fold increase in K i compared with wild-type (H^+,K^+-ATPase Q127A; Q127A): 3.3 fold
Ki (H^+,K^+-ATPase D137N): 450 ± 100 nM
-fold increase in K i compared with wild-type (H^+,K^+-ATPase D137N; D137N): 78 fold
fold lower affinity than WT (H^+,K^+-ATPase D137N; D137N vs WT): more than 60 fold
Ki (H^+,K^+-ATPase A335V): > 1000 nM
-fold increase in K i compared with wild-type (H^+,K^+-ATPase A335V; A335V): > 170 fold
Ki (H^+,K^+-ATPase Y799A): > 1000 nM
-fold increase in K i compared with wild-type (H^+,K^+-ATPase Y799A; Y799A): > 170 fold
Ki (H^+,K^+-ATPase Y799F): 110 ± 10 nM
-fold increase in K i compared with wild-type (H^+,K^+-ATPase Y799F; Y799F): 19 fold
Ki (H^+,K^+-ATPase L809F): 850 ± 130 nM
-fold increase in K i compared with wild-type (H^+,K^+-ATPase L809F; L809F): 150 fold
Ki (H^+,K^+-ATPase V331A): 47 ± 3 nM
-fold increase in K i compared with wild-type (H^+,K^+-ATPase V331A; V331A): 8.1 fold
Ki (H^+,K^+-ATPase V331F): 15 ± 2 nM
-fold increase in K i compared with wild-type (H^+,K^+-ATPase V331F; V331F): 2.3 fold
Ki (H^+,K^+-ATPase L800F): 59 ± 5 nM
-fold increase in K i compared with wild-type (H^+,K^+-ATPase L800F; L800F): 10 fold
Ki [1]: 110 ± 10 nM
-fold increase in K i compared with wild-type ([1]; D137N/N138D): 19 fold
Ki [2]: > 1000 nM
-fold increase in K i compared with wild-type ([2]; A335C/C813A): > 170 fold
IC50 (H^+,K^+-ATPase): 77 nM
SMILES: Cc1nc2c3c(ccn2c1C)[C@@H](O)[C@H](O)[C@@H](c1ccccc1)N3 [BYK99]
